In test [1] the test system is Collagen Induced Arthritis Model. Put plainly: Collagen induced arthritis model. Type of test: in vivo. To be noted: male DBA/1 Lac mice, oral 50 mg/kg daily. On the procedure:
Arthritis induced in male DBA/1 Lac mice with bovine collagen (100 μg/mouse). Booster dose was given on Day 21 and started treatment when clinical score was about 2. […] Dexamethasone was kept as positive control. Severity of each paw score was defined from 0=no erythma to 4=severe arthritis for the swollen paws with a maximum possible score of 16 for 4 paws (4×4) in one animal.

Test [2] relates to TNF-α. Put plainly: LPS induced TNF-α in THP-1 monocytic cells. It is filed as cell-based. To be noted: Homo sapiens, LPS 1 μg/mL 24 hours. On the procedure:
Human THP-1 monocyte cells were cultured and incubated with compounds at different concentrations. Cells were then challenged with lipopolysaccharides (LPS) at a concentration of (1 μg/mL) for 24 hours. Cell supernatants were then analyzed for the presence of TNF-α cytokines by antibody directed enzyme-linked immunoassay from R & D System, Minneapolis, USA.

Test [3] deals with TNF-α. Description: LPS induced sepsis model in mice, serum TNF-α. Type of test: in vivo. The following applies: Mus musculus, SW mice, serum after 90 min. The method, then:
(§1) SW mice were orally treated with vehicle, dexamethasone (5 mg/kg) and compounds at a dose of 50 mg/kg body weight one hour before LPS injection (10 μg/mouse, ip) and blood was collected after 90 min and measured serum TNF-α and IL-6 levels by ELISA.

Test [4] concerns TNF-α. Put plainly: LPS induced TNF-α in hPBMC. The following applies: Homo sapiens, read-out: Inhibition (%) TNF-α. It is filed as cell-based. The method, then: (§2) Human PBMC monocyte cells were cultured and incubated with compounds at different concentrations. Cells were then challenged with lipopolysaccharides (LPS) at a concentration of (1 μg/mL) for 24 hours. Cell supernatants were then analyzed for the presence of TNF-α, IL-6 and IL-1β cytokines by antibody directed enzyme-linked immunoassay. Dexamethasone was used as a positive control in the experiments.

Test [5] relates to carrageenan induced paw inflammation. Description: Carrageenan induced inflammation in rats. Type of test: in vivo. To be noted: Sprague-Dowley rats, 50 mg/kg oral, paw volume after 2 and 3 hours. The method, then: Sprague-Dowley rats with average weight of 250 g (6-7 weeks of age) were randomized in three groups, and given 50 mg/kg oral dose of compound of example 6. Thirty minutes later carrageenan was administered in the sub-planter region of right hind paws. The control group received equal volume of water without any compound. Paw volume was measured after 2 and 3 hours. Dexamethasone at a concentration of 5 mg/kg was used as a positive control in this experiment.

Another test has as its system gamma interferon. Put plainly: Myelin basic protein (MBP) induced gamma interferon in lymph node cultures. Type of test: cell-based. To be noted: MBP stimulated lymph node cells of SJL mice, 72 h, ELISA. On the procedure:
(§3) FIG. 6: Inhibition of myelin basic protein (MBP) induced […] mice were immunized with 400 μg of myelin basic protein (MBP) in CFA on day 0 and 7 and regional lymph nodes were harvested on day 14 and cultured with MBP in the presence or absence of compound 22 for 72 h. Lymphocyte proliferation was determined by thymidine incorporation assay. Cell culture supernatants from MBP stimulated and compound 22 treated cells were assayed for gamma interferon using ELISA.

A further test concerns Lymphocyte proliferation. Put plainly: MBP induced lymphocyte proliferation (thymidine incorporation). Type of test: cell-based. To be noted: MBP stimulated lymph node cells of SJL mice, 72 h. The method, then: as §3
In test [6] the test system is intestinal bowel disease (IBD) induced by dextran sodium sulphate (DSS). Put plainly: DSS induced inflammatory bowel disease in mice. Type of test: in vivo. To be noted: male SW mice, 4% DSS, daily dose 50 mg/kg body weight in PEG400. The method, then:
DAI is comprised of factors such as body weight, stool quality and occult blood content. A 4% solution of DSS was provided as drinking water and DAI was monitored twice a week for the induction of disease. Following this the animals were treated with a daily dose 50 mg/kg body weight of compound 22 in PEG400 formulations and the activity index was monitored twice a week.

For the next test, the system named is IL-12 (p40). Put plainly: CD40 ligand-mediated synthesis of IL-12 (p40) in mouse peritoneal macrophages. The following applies: mouse peritoneal macrophages stimulated with 2 μg/mL soluble CD40 ligand. Type of test: cell-based. On the procedure: To further confirm the inhibition of IL-12 secretion mediated by CD40, induction of IL-12 (p40) was examined following activation of macrophages by soluble CD40 ligand, CD 154. Mouse peritoneal macrophages, were stimulated with 2 μg/mL of soluble […] (Immunex) in the presence of compound 22.

The test system of test [7] is IL-6. Description: LPS induced IL-6 in hPBMC. Type of test: cell-based. To be noted: Homo sapiens, LPS 1 μg/mL 24 hours. On the procedure: as §2
Test [8] concerns IL-6. Put plainly: LPS induced sepsis model in mice, serum IL-6. The following applies: Mus musculus; SW mice, oral 5 mg/kg bw one hour before LPS, serum after 90 min. It is filed as in vivo. The method, then:
as §1

A further test concerns IL-1β. Put plainly: LPS induced IL-1β in hPBMC. Type of test: cell-based. The following applies: Homo sapiens, LPS 1 μg/mL 24 hours. On the procedure: as §2
Another test concerns IL-12. Put plainly: IL-12 secretion following LPS stimulation of mouse spleenic macrophages. Type of test: cell-based. The following applies: mouse splenic macrophages stimulated with LPS for 72 hrs. From the text:
Compound 6 of this class inhibited IL-12 production in mouse splenic macrophages stimulated with LPS for 72 hrs.

In the next test the test system is T cell proliferation. Put plainly: Inhibition of T cell proliferation. Type of test: cell-based, mice. The method, then:
SJL mice were immunized with keyhole limpet hemocyanin (KLH) in complete Freund's adjuvant (CFA). 12 days later regional lymph nodes were isolated and a proliferative response to KLH in the presence or absence of drug was performed (in presence of 3H thymidine). The results are expressed at Stimulation index (CPM+antigen/CPM no antigen). Similarly, mitogen induced concanavalin A (CON-A), IL-4, IL-2 induced T cell proliferation was measured in presence of compounds are shown in Table VI.

[9] abbreviates: hPBMC, 10 μM, LPS 1 μg/mL 24 hours, * average of two experiments.

SMILES strings stand for the structures. Counter-ions that a name gives are not always drawn.

A word on the inhibition: it is the share of the control response that was lost under treatment.

With `Cl.NC(Cc1ccc(Oc2ccc(C(=O)NO)cc2)cc1)C(=O)O` (stereo not shown) [Compound 9, 2-amino-3-[4-(4-hydroxycarbamoyl-phenoxy)-phenyl]-propionic acid hydrochloric acid salt], the arthritic scores result in test [1] is “significantly improved the arthritic scores”. Also, 10 µM produced 20% inhibition with TNF-α [2]. In the test with TNF-α [3] (oral 50 mg/kg body weight one hour before LPS), this molecule displayed an inhibition at 50 mg/kg of 45%.
Take `Cc1ccc(S(=O)(=O)NC(Cc2ccc(Oc3ccc(C(=O)NO)cc3)cc2)C(=O)N(C)C)cc1` (stereo not shown) [Compound 14, 4-{4-[2-Dimethylcarbamoyl-2-(toluene-4-sulfonylamino)-ethyl]-phenoxy}-N-hydroxy-benzamide]: in the test with TNF-α [4] (setting [9]), the inhibition at 10 µM stood at 22%.
The same measure, in the same setting: then `CC(C)OC(=O)C(N)Cc1ccc(Oc2ccc(C(=O)O)cc2)cc1` (stereo not shown) [Compound 15, 4-[4-(2-Amino-2-isopropoxycarbonylethyl)-phenoxy]-benzoicacid], with 40.1%.
In the case of `CC(C)OC(=O)C(N)Cc1ccc(Oc2ccc(C(=O)NO)cc2)cc1` (stereo not shown) [Compound 16, 2-Amino-3-[4-(4-hydroxycarbamoylphenoxy)-phenyl]-propionic acid isopropyl ester], the inhibition at 10 µM in the test on TNF-α [4] (setting [9]) was 69.2%. In test [5], the “inflammation induced by carrageenan (paw volume)” value is reported as “substantially lower the inflammation induced by carrageenan”.
Turning to `CN(C)C(=O)[C@@H](N)Cc1ccc(Oc2ccc(C(=O)NO)cn2)cc1` [Compound 21, L-6-[4-(2-amino-2-dimethylcarbamoyl-ethyl)-phenoxy]-N-hydroxy-nicotinamide hydrochloride], the inhibition at 10 µM in the test with TNF-α [4] (setting [9]) worked out at 36.1%.
With `NC(Cc1ccc(Oc2ccc(C(=O)NO)cc2)cc1)C(=O)[O-].[Na+]` (stereo not shown) [Compound 22, 2-amino-3-[4-(4-hydroxycarbamoyl-phenoxy)-phenyl]-propionic acid sodium salt], the arthritic scores result in test [1] is “significantly improved the arthritic scores”. In addition, the inhibition at 10 µM in the test on TNF-α [4] (24 h) amounted to 40%. In addition, the gamma interferon levels result in the test with gamma interferon is given as “decrease in gamma interferon levels”. Further, in the test with Lymphocyte proliferation, the “T cell proliferative response” value is recorded as “normal T cell proliferative response”. Also, the “disease activity index (DAI)” value in test [6] was “lowering of disease activity index”. The “inhibition of IL-12 (p40)” value with IL-12 (p40) is given as “prominent inhibition of IL-12”.
Regarding `C[C@@H]1C[C@H]2[C@@H]3CCC4=CC(=O)C=C[C@]4(C)[C@@]3(F)[C@@H](O)C[C@]2(C)[C@@]1(O)C(=O)CO` [Dexamethasone, reference compound], the inhibition at 10 µM in the test with TNF-α [4] (setting [9]) came out at 42%; in the test with IL-6 [7] it was 14%; in the test on TNF-α [2] it was 70%; in the test with IL-1β, 26%. In addition, the inhibition at 5 mg/kg in the test on IL-6 [8] was 50%; in the test with TNF-α [3] (oral 5 mg/kg bw one hour before LPS), 70%.
Take `CS(=O)(=O)c1ccc(C2=C(c3ccccc3)C(=O)OC2)cc1` [rofecoxib, reference compound]: the IL-12 production result in the test on IL-12 is “no effect was observed”. Further, in the test on T cell proliferation, the “effect on T cells (proliferation)” value is recorded as “did not show any effect on T cells”.

For the origin of these results see patent US7456292B2, “Hydroxamic acid-containing amino acid derivatives” (Bexel Pharmaceuticals, Inc., priority 2005, dated 2008).
